Assay results: US4329362A, “2-Amino-4-(substituted hydrazino)-6-oxo pyrimidines” (Burroughs Wellcome Co., priority 1977, dated 1982)
Where a name gives a salt, the structure may show the parent alone.

target: dihydropteroic acid biosynthesis (DHPB): hydroxymethyldihydropteridine pyrophosphokinase and dihydropteroate synthetase; assay: coupled assay of dihydropteroic acid biosynthesis (kinase + synthetase), 14C H2pteroate formation; type: biochemical; conditions: coupled assay method; E. coli extract, 0-50% ammonium sulfate fraction; 14C in H2 pteroate from p-aminobenzoate-7-14C; read-out: Concentration in μM required to give 50% inhibition of DHPB
Source text: Potential inhibitors of DHPB synthesis may be tested by investigating the inhibitory effect they impose in the enzymes responsible for the biosynthesis of dihydropteroic acid (DPtA), namely hydroxymethyldihydropteridine pyrophosphokinase (HMPPS), and dihydropteroate synthetase, hereinafter referred to as `synthetase`. In the following reaction equations the compounds are referred to by their abbreviated forms defined hereinbefore in the specification. [formula]
This reaction requires two enzymes since the starting substrates are H2 ptCH2 OH, ATP, and pAB, and the products are H2 pteroate and AMP.
The reactions are followed by determining the amount of ^14 C in H2 pteroate after separation from the substrate, p-aminobenzoate-7-^14 C, by paper chromatography.

Structure (SMILES)	IC50
COc1cc(OC)c(C(=O)Cc2nn(C)c3nc(N)[nH]c(=O)c3c2=O)c(OC)c1 [7-Amino-3-(2,4,6-trimethoxyphenacyl)-1-methylpyrimido(4,5-c)pyridazine-4,5(1H, 6H)-dione]	2.7 µM
COc1ccc(C(=O)Cc2nn(C)c3nc(N)[nH]c(=O)c3c2=O)c(OC)c1 [7-Amino-3-(2,4-dimethoxyphenacyl)-1-methylpyrimido(4,5-c)pyridazine-4,5(1H,6H)-dione]	0.14 µM
COc1ccc(OC)c(C(=O)Cc2nn(C)c3nc(N)[nH]c(=O)c3c2=O)c1 [7-Amino-3-(2,5-dimethoxyphenacyl)-1-methylpyrimido(4,5-c)pyridazine-4,5(1H,6H)-dione]	0.06 µM
COc1cc(C(=O)Cc2nn(C)c3nc(N)[nH]c(=O)c3c2=O)cc(OC)c1OC [7-Amino-3-(3,4,5-trimethoxyphenacyl)-1-methylpyrimido(4,5-c)pyridazine-4,5(1H, 6H)-dione]	0.03 µM
COc1ccc(C(=O)Cc2nn(C)c3nc(N)[nH]c(=O)c3c2=O)cc1OC [7-Amino-3-(3,4-dimethoxyphenacyl)-1-methylpyrimido(4,5-c)pyridazine-4,5(1H,6H)-dione]	0.15 µM
Cn1nc(CC(=O)c2cccc(O)c2)c(=O)c2c(=O)[nH]c(N)nc21 [7-Amino-3-(3-hydroxyphenacyl)-1-methylpyrimido(4,5-c)pyridazine-4,5(1H, 6H)-dione]	0.22 µM
Cn1nc(Cc2ccccc2[N+](=O)[O-])c(=O)c2c(O)nc(N)nc21 [7-amino-1-methyl-3-(2-nitrobenzyl)-4-oxo-5-hydroxy-1,4-dihydropyrimido(4,5-c)pyridazine]	12 µM
COc1cc(CC(C#N)c2nn(C)c3nc(N)nc(O)c3c2=O)cc(OC)c1OC (stereo not drawn) [7-amino-1-methyl-3-(α-cyano-3,4,5-trimethoxyphenethyl)-4-oxo-5-hydroxy-1,4-dihydropyrimido(4,5-c)pyridazine]	11 µM
COc1cc(Cc2nn(C)c3nc(N)nc(O)c3c2=O)cc(OC)c1OC [7-amino-3-(3,4,5-trimethoxybenzyl)-1-methyl-4-oxo-5-hydroxy-1,4-dihydropyrimido(4,5-c)pyridazine]	0.77 µM
COc1ccc(Cc2nn(C)c3nc(N)nc(O)c3c2=O)cc1OC [7-amino-3-(3,4-dimethoxybenzyl)-1-methyl-4-oxo-5-hydroxy-1,4-dihydropyrimido(4,5-c)pyridazine]	0.86 µM
CCc1nn(C)c2nc(N)[nH]c(=O)c2c1=O [C2 H5]	33 µM
Cn1nc(-c2ccccc2)c(=O)c2c(O)nc(N)nc21 [C6 H5, 7-amino-1-methyl-3-phenyl-4-oxo-5-hydroxy-1,4-dihydropyrimido(4,5-c)pyridazine]	15 µM
Cn1nc(Cc2ccccc2)c(=O)c2c(O)nc(N)nc21 [CH2 C6 H5, 7-amino-1-methyl-3-benzyl-4-oxo-5-hydroxy-1,4-dihydropyrimido(4,5-c)pyridazine]	11 µM
CCOC(=O)CCc1nn(C)c2nc(N)[nH]c(=O)c2c1=O [CH2 CH2 CO2 C2 H5]	16 µM
Cn1nc(CCC(=O)O)c(=O)c2c(=O)[nH]c(N)nc21 [CH2 CH2 CO2 H]	5.5 µM
CCOC(=O)Cc1nn(C)c2nc(N)nc(O)c2c1=O [CH2 CO2 C2 H5, 7-amino-1-methyl-3-(ethoxycarbonylmethyl)-4-oxo-5-hydroxy-1,4-dihydropyrimido(4,5-c)pyridazine]	6.2 µM
Cn1nc(CC(=O)c2ccccc2)c(=O)c2c(=O)[nH]c(N)nc21 [CH2 COC6 H5, 7-Amino-3-phenacyl-1-methylpyrimido(4,5-c)pyridazine-4,5(1H, 6H)-dione]	0.76 µM
CC(=O)OCc1nn(C)c2nc(N)[nH]c(=O)c2c1=O [CH2 OCOCH3, 7-Amino-3-acetoxymethyl-1-mehylpyrimido(4,5-c)pyridazine-4,5(1H, 6H)-dione]	15 µM
Cn1nc(CO)c(=O)c2c(=O)[nH]c(N)nc21 [CH2 OH, 7-Amino-3-hydroxymethyl-1-methylpyrimido(4,5-c)pyridazine-4,5(1H, 6H)-dione Sodium Salt]	12 µM
Cc1nn(C)c2nc(N)[nH]c(=O)c2c1=O [CH3, 7-Amino-1,3-dimethylpyrimido(4,5-c)pyridazine-4,5-(1H, 6H)-dione]	16 µM
CCOC(=O)C(C)c1nn(C)c2nc(N)[nH]c(=O)c2c1=O (stereo not shown) [CH(CH3)CO2 C2 H5, 7-Amino-3-(1-ethoxycarbonylethyl)-1-methylpyrimido(4,5-c)pyridazine-4,5(1H,6H)-dione]	1.6 µM
CC(C(=O)O)c1nn(C)c2nc(N)[nH]c(=O)c2c1=O (stereo not shown) [CH(CH3)CO2 H, 7-Amino-3-(1-carboxyethyl)-1-methylpyrimido(4,5-c)pyridazine-4,5(1H, 6H)-dione Disodium Salt]	3.7 µM
CCOC(=O)C(OC)c1nn(C)c2nc(N)[nH]c(=O)c2c1=O (stereo not shown) [CH(OCH3)CO2 C2 H5]	17 µM
COC(C(=O)O)c1nn(C)c2nc(N)nc(O)c2c1=O (stereo not shown) [CH(OCH3)CO2 H, 7-amino-1-methyl-3-((1-methoxy)carboxymethyl)-4-oxo-5-hydroxy-1,4-dihydropyrimido(4,5-c)pyridazine]	2.8 µM
Cn1nc(C(=O)O)c(=O)c2c(=O)[nH]c(N)nc21 [CO2 H (disodium salt), 7-Amino-3-carboxy-1-methylpyrimido(4,5-c)pyridazine-4,5(1H, 6H)-dione Disodium Salt]	21 µM
Cn1nc(-c2c[nH]c3ccccc23)c(=O)c2c(=O)[nH]c(N)nc21 [Example 3-Indolyl]	30 µM
CC(C)Cc1nn(C)c2nc(N)[nH]c(=O)c2c1=O [iso-C4 H9]	20 µM
CCCc1nn(C)c2nc(N)[nH]c(=O)c2c1=O [n-C3 H7]	45 µM
CCCCCCc1nn(C)c2nc(N)[nH]c(=O)c2c1=O [n-C6 H13]	50 µM

system: not listed separately; assay: pKa values; type: physicochemical; conditions: read-out: pKa values (first value)

Structure (SMILES)	pKa
Cc1nn(C)c2nc(N)[nH]c(=O)c2c1=O [CH3, 7-Amino-1,3-dimethylpyrimido(4,5-c)pyridazine-4,5-(1H, 6H)-dione]	4.1 ± 0.1

same assay, conditions: read-out: pKa values (second value)

Structure (SMILES)	pKa
Cc1nn(C)c2nc(N)[nH]c(=O)c2c1=O [CH3, 7-Amino-1,3-dimethylpyrimido(4,5-c)pyridazine-4,5-(1H, 6H)-dione]	8.6 ± 0.1
